Data on ten compounds can be found in publication PMC8688338 (Molecular microbiology, 2021).

The subject of one data set is T. vaginalis. The following applies: cited from earlier work.
For the next data set, the target named is TvagENT3 (Trichomonas vaginalis, UniProt A2E5Q3). Description: [3H]-cytidine uptake by T. brucei TbAT1-KO cells expressing TvagENT3.
The target of data set [1] is low affinity pyrimidine nucleobase transporter of T. vaginalis. Description: [3H]-uracil transport in T. vaginalis trophozoites. To be noted: read-out: Ki,app. Format: cell-based, Trichomonas vaginalis.
The target in another data set is TvagENT6 (Trichomonas vaginalis, UniProt A2EMT5). To be noted: adenine up to 1 mM.
The test system of data set [2] is T. vaginalis nucleoside transporters, Thymidine (HA). Kind of data set: Higher affinity [3H]-thymidine transport. Type of data set: cell-based, Trichomonas vaginalis.
The target in data set [3] is T. vaginalis nucleoside transporters, Adenosine (HA). Kind of data set: High affinity [3H]-adenosine transport in T. vaginalis trophozoites. Format: cell-based, Trichomonas vaginalis. To be noted: read-out: Ki,app, inhibition of […] [3H]-adenosine transport.
Data set [4] relates to T. vaginalis adenine transporter. Kind of data set: [3H]-adenine transport in T. vaginalis trophozoites. Type of data set: cell-based, Trichomonas vaginalis. To be noted: for Km: read-out: Km,app.
The subject of data set [5] is T. vaginalis nucleoside transporters, Adenosine (LA). Kind of data set: Low affinity adenosine transport. Type of data set: cell-based, Trichomonas vaginalis. The following applies: for inhibition of transport: 20 µM [3H]-adenosine, highest tested concentration: guanosine 250 µM, adenine 1 mM, hypoxanthine 1 mM, uracil 10 mM; for Ki: read-out: Ki,app, inhibition of 20 µM [3H]-adenosine transport, average and SEM.

Data set [6] deals with T. vaginalis trophozoites. Description: Preliminary uptake of cytosine and thymine by T. vaginalis trophozoites. Type of data set: cell-based, Trichomonas vaginalis. The following applies: preliminary experiments.
For data set [7], the target named is T. vaginalis nucleoside transporters, Cytidine (HA). Description: High affinity [3H]-cytidine transport in T. vaginalis trophozoites. To be noted: read-out: Ki,app; inhibition of […] [3H]-cytidine transport, 30 s; average and SEM. Type of data set: cell-based, Trichomonas vaginalis.
For data set [8], the system named is T. vaginalis nucleoside transporters. To be noted: ref Harris et al., 1988; cited from earlier work.
The target in data set [9] is T. vaginalis nucleoside transporters, Inosine (LA). Kind of data set: Low affinity [3H]-inosine transport in T. vaginalis trophozoites. Format: cell-based, Trichomonas vaginalis. The following applies: read-out: Ki,app, inhibition of 1 µM [3H]-inosine uptake, average and SEM.
The subject of data set [10] is T. vaginalis nucleoside transporters, Guanosine (HA). Kind of data set: [3H]-guanosine transport in T. vaginalis trophozoites. Type of data set: cell-based, Trichomonas vaginalis.
Data set [11] concerns Nc1ccn([C@@H]2O[C@H](CO)[C@@H](O)[C@H]2O)c(=O)n1. Kind of data set: cells, lysate or membranes.
[12] abbreviates: 30 s, monophasic, average and SEM.
Where [13] appears, read: single experiment, Fig. 6E inset.
Setting [14] is: inhibition of 0.5 µM [3H]-uracil uptake.

Several values for one entry are separate records, joined by “and”; a condition that tells them apart may be missing. Identical values can stand only once. Like-named read-outs stand apart in the source and are kept apart here.

With 2’F,2’-deoxyadenosine, the antitrichomonal activity entry in the data set on T. vaginalis (ref Shokar et al., 2012) is reported as “strong antitrichomonal activity”. Further, the Hill slope on TvagENT3 is −0.97± 0.15. Also, on TvagENT3 (read-out: Ki,app), the Ki came out at 1.11 ± 0.38 µM.

Consider `Nc1ncnc2c1ncn2[C@@H]1O[C@H](CO)[C@@H](O)[C@@H]1F` [2′-F,2′-deoxyarabinoadenosine], for which, in the data set with T. vaginalis (ref Shokar et al., 2012), the antitrichomonal activity result was “strong antitrichomonal activity”.

In the case of `O=c1[nH]cc(F)c(=O)[nH]1` [5F-uracil], the Ki in [1] turned out to be 265 ± 57 µM.

As for `Nc1ncnc2c1ncn2[C@@H]1O[C@H](CO)[C@@H](O)[C@@H]1O` [adenine arabinoside], in the data set on T. vaginalis (ref Shokar et al., 2012), the antitrichomonal activity entry is recorded as “strong antitrichomonal activity”.

As for `Nc1ncnc2nc[nH]c12` [adenine], on TvagENT6, the inhibition of transporter result is reported as “not significantly inhibited”. Also, the inhibition of transport is at most 50% in data set [2] (125 nM [3H]-thymidine, nucleobase at 1 mM) and at most 50% in data set [5]. For the same compound, the Ki in data set [3] was over 1000 µM; in data set [3] (setting [12]), about 1000 µM; in [5] it was over 1000 µM. The EC50 in data set [4] is 0.35 µM; in data set [4] (inhibition of [3H]-adenine uptake, single experiment, Fig. 6E) it was 0.27 µM; in [4] (read-out: EC50, high affinity component, two transporter model, Fig. 6F), 0.23 µM; in data set [4] (read-out: EC50, lower affinity component, two transporter model, Fig. 6F, large degree of uncertainty), 17 µM. Moreover, the rate of transport in data set [4] (50 nM [3H]-adenine) was 0.00073 pmol(10^7 cells)^−1s^−1; in [4] (1 µM [3H]-adenine), 0.0164 pmol(10^7 cells)^−1s^−1 and 0.016 pmol(10^7 cells)^−1s^−1. In addition, the “rate of transport in the presence of unlabelled permeant” value in data set [4] (50 nM [3H]-adenine + 1 mM unlabelled adenine) is listed as 0.000097 pmol(10^7 cells)^−1s^−1; in [4] (1 µM [3H]-adenine + 1 mM unlabelled adenine), 0.00429 pmol(10^7 cells)^−1s^−1. Further, the inhibition of uptake in data set [4] (50 nM [3H]-adenine by 1 mM unlabelled adenine) worked out at 86.7%; in [4] (1 µM [3H]-adenine by 1 mM unlabelled adenine), 73.8%. The Vmax in [4] (50 nM [3H]-adenine, average) was 0.091 ± 0.027 pmol(10^7 cells)^−1s^−1; in data set [4] (setting [13]), 0.155 pmol(10^7 cells)^−1s^−1. Further, the Km in data set [4] (50 nM [3H]-adenine, high-affinity system, average) is 0.41 ± 0.097 µM; in data set [4] (setting [13]), 0.23 µM. In addition, the “share of flux of high affinity component” value in data set [4] (two transporter model, Fig. 6F) came to 81%.

With `Nc1cc[nH]c(=O)n1` [cytosine], the Ki in data set [1] (setting [14]) stood at 334 ± 73 µM. Besides, the saturable uptake result in data set [6] (cytosine 0.25 µM over 120 s) is “not significant”.

On to `Nc1ncnc2c([C@@H]3O[C@H](CO)[C@@H](O)[C@H]3O)[nH]nc12` [formycin A], for which, in the data set with T. vaginalis (ref Munagala and Wang, 2003), the antitrichomonal activity entry is recorded as “strong antitrichomonal activity”.

As for `Nc1nc2c(ncn2[C@@H]2O[C@H](CO)[C@@H](O)[C@H]2O)c(=O)[nH]1` [guanosine], the Ki in [7] was 16.7 ± 2.6 µM; in data set [3] (setting [12]), 12.2 ± 2.4 µM; in [9], 7.41 ± 2.92 µM; in [9] (listed as Guanosine) it was 7.4 ± 2.9 µM; on TvagENT3, 2.9 ± 0.14 µM; in data set [5], over 250 µM. In addition, the Km is 13.9 µM in [8]; 9 ± 0.6 µM in [10] (read-out: Km,app, Guanosine (HA), average and SEM). The half-maximal effective concentration (EC50) in data set [2] (inhibition of 0.125 µM [3H]-thymidine uptake, single experiment, Fig. 3C/D) worked out at 51.2 µM. In addition, on TvagENT3, the Hill slope is −1.33 ± 0.09. In data set [10] (1 µM [3H]-guanosine), the rate of transport is reported as 0.22 ± 0.01 pmol(10^7 cells)^−1s^−1. Besides, the “rate of transport in the presence of unlabelled permeant” value in data set [10] (1 µM [3H]-guanosine + 0.25 mM unlabelled guanosine) was 0.0030 ± 0.0004 pmol(10^7 cells)^−1s^−1. In data set [10] (1 µM [3H]-guanosine by 250 µM guanosine), the reduction of uptake is listed as 98.6%. Besides, in data set [10] (Guanosine (HA), average and SEM), the Vmax was 0.91 ± 0.25 pmol(10^7 cells)^−1s^−1. This compound also registered an inhibition of transport in data set [5] of at most 50%.

With `Cc1c[nH]c(=O)[nH]c1=O` [thymine], the Ki in data set [1] (setting [14]) amounted to 57 ± 8 µM. Further, the saturable uptake result in data set [6] (thymine 0.5 µM over 120 s) was “not significant”.

Turning to TvagENT3 (Trichomonas vaginalis G3), the Km in data set [11] (other: 0.5 µM [3H]-cytidine, TvagENT3 in T. brucei TbAT1-KO, average) is on record as 10.2 ± 2.6 µM; in [11] (other: single experiment, Fig. 10D inset), 10.9 µM.
